Test results from publication PMC11309765, “Mechanism of the blood-brain barrier modulation by cadherin peptides” (Exploration of drug science, 2024).
“Also recorded” adds a separate entry of the source. Bridges are numbered along the chain shown (N, C = ends).

Key:
BBB [1] = system: BBB; parameters: method as in 3 sources, ref 49 = [49]; PMID 12754091; doi:10.1016/s0361-9230(03)00043-1; 49. Borlongan CV , Emerich DF . Facilitation of drug entry into the CNS via transient permeation of blood brain barrier: laboratory and preliminary clinical evidence from bradykinin receptor agonist, ||| ref 50 = [50]; PMID 22524793; doi:10.1021/mp3000937; 50. Zwanziger D , Hackel D , Staat C , Böcker A , Brack A , Beyermann M , A peptidomimetic tight junction modulator to improve regional analgesia . Mol Pharm . 2012; 9 : 1785 – 94 . 22524793 10.1021/ ||| ref 43-45 = [43]; PMID 25307218; doi:10.1016/bs.apha.2014.06.002; 43. Doolittle ND , Muldoon LL , Culp AY , Neuwelt EA . Delivery of chemotherapeutics across the blood-brain barrier: challenges and advances . Adv Pharmacol . 2014; 71 : 203 – 43 . 25307218 10.1016/b || [44]; 44. Smith QR . Quantitation of Blood-Brain Barrier Permeability . In: Neuwelt EA , editor. Implications of the Blood-Brain Barrier and Its Manipulation: Volume 1 Basic Science Aspects . Boston, MA : S || [45]; PMID 3930991; doi:10.1227/00006123-198509000-00004; 45. Neuwelt EA , Barnett PA , McCormick CI , Frenkel EP , Minna JD . Osmotic blood-brain barrier modification: monoclonal antibody, albumin, and methotrexate delivery to cerebrospinal fluid and brain; conditions: hypertonic mannitol solution; cited from earlier work
[2] = system: blood-brain barrier (BBB); conditions: cited from earlier work
Text: In addition, Gd-DTPA delivery to the brain was enhanced when co-administered with ADTC5 in living mice upon detection with magnetic resonance imaging (MRI). […] Different cadherin peptides produced different durations of the BBB opening for different sizes of del ...

BBB [3] = conditions: in vivo; cited from earlier work
Text: As BBBMs, the in vivo activities of ADT and HAV peptides to modulate the BBB were transient and reversible. […] Different cadherin peptides produced different durations of the BBB opening for different sizes of del ...

EC1 domain of E-cadherin = conditions: cited from earlier work
Text: The BBB paracellular porosity can be magnified by Ala-Asp-Thr (ADT) and His-Ala-Val (HAV) peptides that were derived from cadherin sequences to inhibit cadherin-cadherin interactions. The ADT and HAV peptides were designed from the amino acid sequences of the bulge and grove regions in the cadherin EC1 domain, respectively. As BBB modulators (BBBMs), both ADT and/or HAV peptides enhanced brain depositions of various sizes of molecules to the brain parenchyma such as IRdye 800CW, ^3H-daunomycin, adenanthin, or gadolinium-diethylenetriaminepentacetate (Gd-DTPA or gadopent ... || Figure 6. The proposed mechanisms of binding for Ala-Asp-Thr (ADT) and His-Ala-Val (HAV) peptides to extracellular-1 (EC1) domain of cadherin to inhibit cadherin-cadherin interactions. (A) A model to represent cadherin-to-cadherin interactions in the paracellular pathway at the adherens junction. First is the cis-interaction of EC1 and EC2 on two cadherin proteins that are protruding from one side of cell membranes. Second is the trans-interaction of EC1-EC1 from two cadherins that reside in two opposite membranes; (B) the EC1-EC1 interaction with domain swapping between the N-terminal Trp2 an ... || We hypothesized that HAV and ADT peptides prevent cadherin-cadherin interactions by binding to EC1 in the BBB adherens junctions (Figure 6C and D). Cadherin peptides disrupt the integrity of cell-cell adhesion in dynamics and reversible fashion in paracellular pathways of the BBB. Thus, the NMR and molecular docking experiments were carried out to determine the EC1 binding properties of ADT peptides.

[4] = target: 15N-labeled extracellular-1 (EC1) domain of human E-cadherin (human, UniProt P12830 155-367, 15N-labeled); experiment: NMR titration; 1H-15N HSQC (600 MHz) of 15N-labeled EC1 titrated with peptide; 20.0 mM potassium phosphate, 5.0 mM DTT, pH 6.0, 6% D2O; chemical shift perturbation; Kd from the titration curve of a single residue (Ile53 or Leu21); conditions: both partners purified
15N-labeled extracellular-1 (EC1) domain of human E-cadherin, sequence (P12830 155-367): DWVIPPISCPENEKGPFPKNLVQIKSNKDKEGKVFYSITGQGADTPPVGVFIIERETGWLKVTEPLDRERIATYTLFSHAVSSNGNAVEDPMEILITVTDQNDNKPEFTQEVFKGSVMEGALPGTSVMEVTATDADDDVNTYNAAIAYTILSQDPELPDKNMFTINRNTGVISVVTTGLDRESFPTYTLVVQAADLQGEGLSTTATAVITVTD

Which “BBB paracellular porosity by osmotic disruption” value (BBB [1]) does the source give for `OC[C@@H](O)[C@@H](O)[C@H](O)[C@H](O)CO` [mannitol] here?
The value was “increase paracellular porosity of the intercellular junctions”.

Which “delivery of mAb to brain” value ([2]; 150 kDa mAb) does the source give for “Ac-SHAVSS-NH2 [HAV6, reference compound]” here?
The value was “could not deliver mAb when administered together”.

What about the “duration of BBB opening for transport of Gd-DTPA” value ([2]; Gd-DTPA) of the same molecule?
Its value is “less than 45 min”.

And the “delivery of Galbumin to brain” value ([2]; delay in the administration of HAV6 and Galbumin)?
The value was “could not deliver Galbumin when there was a delay in the administration of HAV6 and Galbumin”.

What about the inflammation and astrogliosis (BBB [3]) of the same molecule?
Its inflammation and astrogliosis is “did not induce inflammation and astrogliosis”.

And the “EC1 binding site location” value (EC1 domain of E-cadherin)?
Its value is “dock on the surface of EC1 that interacts with the EC2 surface from a neighboring cadherin protein”.

For “Cyclo(1,6)Ac-CSHAVC-NH2 (disulfide) [cHAVc3]”, which “EC1 binding and effect on cis-cadherin interactions” value (EC1 domain of E-cadherin) is on record?
The value was “increased the porosity of the paracellular route through binding to the EC1 domain followed by disruption of the cis-cadherin interactions”.

What about the “EC1 binding site location” value (EC1 domain of E-cadherin) of the same molecule?
The value was “found at the opposite side of ADT cyclic 5 (ADTC5) binding site; also recorded: dock on the surface of EC1 that interacts with the EC2 surface from a neighboring cadherin protein; also recorded: binds to the opposite side of ADTC5-binding site”.

B1: Ala-Asp-Thr Cyclic 5 (ADTC5) (peptide)
peptide: Ac-CDTPPVC-NH2
modifications: disulfide 1-7
SMILES: CC(=O)N[C@H]1CSSC[C@@H](C(N)=O)NC(=O)[C@H](C(C)C)NC(=O)[C@@H]2CCCN2C(=O)[C@@H]2CCCN2C(=O)[C@H]([C@@H](C)O)NC(=O)[C@H](CC(=O)O)NC1=O
notes: Cyclo(1,7)Ac-CDTPPVC-NH2; ADT peptide designed from the bulge region of the cadherin EC1 domain; also called ADT cyclic 5; source: synthetic peptide (Fmoc solid-phase synthesis, HPLC purified, cyclized by air oxidation)
For B1, which Kd [4] is on record?
Its Kd is 35 µM.

B2: ADTC9 (peptide)
peptide: Ac-CDTPPYC-NH2
modifications: disulfide 1-7
SMILES: CC(=O)N[C@H]1CSSC[C@@H](C(N)=O)NC(=O)[C@H](Cc2ccc(O)cc2)NC(=O)[C@@H]2CCCN2C(=O)[C@@H]2CCCN2C(=O)[C@H]([C@@H](C)O)NC(=O)[C@H](CC(=O)O)NC1=O
notes: Cyclo(1,7)Ac-CDTPPYC-NH2; derivative of ADTC5 with Val6 replaced by Tyr6; source: synthetic peptide (Fmoc solid-phase synthesis, HPLC purified, cyclized by air oxidation)
For B2, which Kd [4] is on record?
The Kd was 181 µM.

B3: ADTC7 (peptide)
peptide: Ac-CDTPPEC-NH2
modifications: disulfide 1-7
SMILES: CC(=O)N[C@H]1CSSC[C@@H](C(N)=O)NC(=O)[C@H](CCC(=O)O)NC(=O)[C@@H]2CCCN2C(=O)[C@@H]2CCCN2C(=O)[C@H]([C@@H](C)O)NC(=O)[C@H](CC(=O)O)NC1=O
notes: Cyclo(1,7)Ac-CDTPPEC-NH2; derivative of ADTC5 with Val6 replaced by Glu6; source: synthetic peptide (Fmoc solid-phase synthesis, HPLC purified, cyclized by air oxidation)
With B3 as the molecule, how does the Kd [4] read?
The Kd was 64 µM.
